Common to all, as to experiment: Post-emergence herbicidal action on harmful plants (greenhouse)
What all share (type): in vivo
Conditions in all cases: 50 g a.i./ha, visual scoring after about 3 to 4 weeks

Experiment [1] deals with Stellaria media. Here is the method: (§1) 1. Post-emergence herbicidal action on harmful plants
(§2) Seeds of monocotyledonous and dicotyledonous harmful plants are placed in sandy loam soil in cardboard pots, covered with soil and grown in a greenhouse under good growth conditions. Two to three weeks after sowing, the test plants are treated at the three-leaf stage. The compounds according to the invention which were formulated as wettable powders or emulsion concentrate are sprayed, at one of the dosages given in Tables 1 to 5, onto the surface of the green parts of the plants at an application rate of from 600 to 800 1 of water/ha (converted). After the test plants had remained in the greenhouse for about 3 to 4 weeks under optimum growth conditions, the effect of the preparations is scored visually by comparison with compounds disclosed in the prior art. As shown by the results of Comparative Tables 1 to 4, the selected compounds according to the invention have better herbicidal activity against a broad spectrum of economically important monocotyledonous and dicotyledonous harmful plants than the compounds disclosed in the prior art.

Experiment [2] has as its system Chenopodium album. Here is the method: as §1, §2
The subject of experiment [3] is Polygonum convolvulus. As for the experimental part: as §1, §2

Take `Cc1nn(C)c(O)c1C(=O)c1ccc(S(C)(=O)=O)cc1` [Compound S2]: the “Damage to the harmful plants in % STEME” value in experiment [1] worked out at 10%. For the same compound, in experiment [2], the “Damage to the harmful plants in % CHEAL” value was determined as 0%. Further, the “Damage to the harmful plants in % POLCO” value in experiment [3] is given as 10%.

Values taken from patent publication US6420317B1, “Benzoylpyrazoles and their use as herbicides” (Aventis CropScience GmbH, priority 2000, dated 2002).
